Consider three compounds from patent publication US8048919B2, “Use of ethyl lactate as an excipient for pharmaceutical compositions” (Archer Daniels Midland Company, priority 2004, dated 2011).

A short description of the series: Resistance of high purity ethyl lactate to peroxide formation in air (Quantofix test paper). It counts as physicochemical. The conditions noted are these: for level of peroxide: 250 ml ethyl lactate + 0.3 g agent, stirred in air. The protocol:
In the procedure used, 250 ml of high purity ethyl lactate containing 0.0 ppm of peroxide as measured with Quantofix™ test paper was added to each of four beakers. The first beaker served as a control and was not treated with any chemical agent. The second beaker was treated with 0.3 g of BHT. The third beaker was treated with 0.3 g of cysteine and the fourth beaker was treated with 0.3 g of methionine. […] The level of peroxide in each of the ethyl lactate samples was monitored and is reported as a function of time in Table 2.

Structures are written as SMILES.

As for `N[C@@H](CS)C(=O)O` [Cysteine, cysteine], the level of peroxide (time 0 minutes) is reported as 0.0 ppm; the level of peroxide (time 15 minutes) was found to be 0.0 ppm; the level of peroxide (time 30 minutes) worked out at 0.0 ppm; the level of peroxide (time 60 minutes) was determined as 0.0 ppm; the level of peroxide (time 75 minutes) worked out at 0.0 ppm; the level of peroxide (time 90 minutes) turned out to be 0.0 ppm. For the same compound, the level of peroxide is, setting by setting: (time 105 minutes) 0.0 ppm; (time 120 minutes) 0.0 ppm; (time 150 minutes) 0.0 ppm; (time 180 minutes) 0.0 ppm; (time 240 minutes) 0.0 ppm; (time 300 minutes) 0.0 ppm. In addition, the level of peroxide reads like this: (time 360 minutes) 0.0 ppm; (time 1440 minutes) 0.0-0.5 ppm.

In the case of `Cc1cc(C(C)(C)C)c(O)c(C(C)(C)C)c1` [BHT, butylated hydroxyl toluene], the level of peroxide is given as 0.0 ppm (time 0 minutes); 0.0 ppm (time 15 minutes); 0.0 ppm (time 30 minutes); 0.0 ppm (time 60 minutes); 0.0 ppm (time 75 minutes); 0.0 ppm (time 90 minutes). Further, the level of peroxide by setting is: (time 105 minutes) 0.0 ppm; (time 120 minutes) 0.0 ppm; (time 150 minutes) 0.0 ppm; (time 180 minutes) 0.0 ppm; (time 240 minutes) 0.0 ppm; (time 300 minutes) 0.0 ppm. For the same compound, the level of peroxide reads like this: (time 360 minutes) 0.0 ppm; (time 1440 minutes) 0.0 ppm. The “effectiveness as stabilizer against peroxide generation” value (compared with the other compounds evaluated) is listed as “most effective”. Also, where the note is “ethyl lactate stabilized with BHT, throughout the trial period”, the Gardner color rating was found to be 1.

Consider `CSCC[C@H](N)C(=O)O` [Methionine, methionine], for which the level of peroxide is 0.0 ppm (time 0 minutes); 0.0 ppm (time 15 minutes); 0.0 ppm (time 30 minutes); 0.5 ppm (time 60 minutes); 0.5-2.0 ppm (time 75 minutes); 0.5-2.0 ppm (time 90 minutes). For the same compound, the level of peroxide (time 105 minutes) was found to be 2.0 ppm; the level of peroxide (time 120 minutes) was determined as 2.0 ppm; the level of peroxide (time 150 minutes) amounted to 2.0 ppm; the level of peroxide (time 180 minutes) is 5.0 ppm; the level of peroxide (time 240 minutes) is listed as 2.0-5.0 ppm; the level of peroxide (time 300 minutes) came out at 5.0 ppm. The level of peroxide was found to be 5.0 ppm (time 360 minutes) and 5.0 ppm (time 1440 minutes).
